According to patent US8071763B2, “Methods for treatment of nocturia” (Daiichi Sankyo Company, Limited, priority 2002, dated 2011):

Assays:
nocturia = test: Single BPH patient taking a loxoprofen sodium tablet before sleeping; type: in vivo, human; details: one patient treated for BPH; 60-mg tablet before sleeping
Method: Based on the experience, the inventor conducted a non-randomized trial treatment with loxoprofen, a short-acting nonsteroidal anti-inflammatory drug (NSAID) prodrug usually prescribed at a dosage of 60 mg t.i.d. for the management of pain, in patients bothered by nocturia. […] The invention was achieved on the basis of these findings.

patients with nocturia = test: Continuation and termination of loxoprofen administration after the trial treatment; type: in vivo, human
Method: After the initial study, loxoprofen was administered at the patients' discretion; 101 continued loxoprofen therapy for =320 (mean 61) days. After the evaluation, loxoprofen therapy was continued or not according to the patients' wishes (Table 5). Of 101 excellent and improved patients, 11 continued to take loxoprofen every night and 43 when necessary. The improvement of nocturia lasted for several months even after discontinuation of therapy in 11 (10%) who discontinued loxoprofen after 5 to 310 days' administration. In addition, in five patients in whom loxoprofen's effectiveness reduced after continuous administration, the effectiveness recovered with occasional administration following withdrawal for several weeks.

[1] = discontinued after 5 to 310 days' administration
[2] = patients with Excellent Response
[3] = patients with Improved Response

CC(C(=O)O)c1ccc(CC2CCCC2=O)cc1 (stereo not drawn) [loxoprofen, loxoprofen sodium]
Nocturia, voids/night (nocturia): decreased from a usual of four voids to one void/night | Improvement of nocturia lasted for several months after discontinuation of therapy, % of patients (patients with nocturia; [1]): 10% | Improvement of nocturia lasted for several months after discontinuation of therapy, no. of patients (patients with nocturia; [1]): 11 | Effectiveness reduced after continuous administration and recovered with occasional administration, no. of patients (patients with nocturia; following withdrawal for several weeks): five | Discontinued therapy due to adverse events, no. of patients (patients with nocturia; [2]): 1 | Discontinued therapy: cured or stable improvement, no. of patients (patients with nocturia; [2]): 7 | Discontinued therapy due to adverse events, no. of patients (patients with nocturia; [3]): 9 | Discontinued therapy: cured or stable improvement, no. of patients (patients with nocturia; [3]): 4 | Discontinued therapy: reduced efficacy, no. of patients (patients with nocturia; [3]): 2
